From patent US4552888A, “Ascorbic acid ethers in angiogene” (Eli Lilly and Company, priority 1983, dated 1985)
Like-named read-outs stand apart in the source and are kept apart here. One block for each compound: values may come before it.

Key:
[1] = tested on: scorbutic guinea pigs; conditions: added to the diet of scorbutic guinea pigs; Gould et al. 1949; cited from earlier work
[2] = tested on: Vitamin C activity; conditions: orally in aqueous solution; Bezssonoff and Sacrez 1937; cited from earlier work
[3] = tested on: proline hydroxylation in scorbutic granulomas; conditions: in vitro; Rokosova and Chvapil 1974; cited from earlier work
[4] = tested on: paw swelling caused by Type II collagen; experiment: Collagen arthritis assay (type II collagen-induced paw swelling); type: in vivo, inbred Lewis male rats; conditions: for decrease in paw swelling caused by collagen Type II injection: 15 mg./kg. per os
Method: This test method is a collagen arthritis assay carried out as follows. Type II collagen is isolated from bovine articular cartilage by the method of […] and Nimni [Biochemistry, 10, 3905, (1971)]. The collagen is dissolved in 0.1M acetic acid and stored at -20°. Type II collagen solution is diluted to 2 mg./ml. concentration and emulsified thoroughly with an equal volume of incomplete Freund's adjuvant (ICFA). The emulsion containing approximately 0.5 mg. of collagen is injected intradermally to groups of 6 inbred Lewis male rats (Charles River Breeders; 170-200 g.) at various sites in the dorsal area. The hindpaw volumes of each rat is measured and recorded three times a week throughout the test period to assess the inflammatory reaction. The animals receive compounds under test as suspensions in carboxymethylcellulose vehicle, by oral gavage, 5 days per week (Mon.-Fri.). At the end of the test (day 28 or 30), the blood of these animals is drawn by cardiac puncture and the serum anti-type II collagen antibody levels are estimated by passive hemagglutination technique, using glutaraldehyde treated sheep red cells, to which type II collagen is conjugated [[…] et al., Immunochemistry, 6, 67,1969); Andriopoulos et al., Arth. Rheum., 19, 613, (1976)]. The cellular response or delayed-type hypersensitivity response to type II collagen is measured by the radiometric ear index assay (Kostiala, Immunology, 33, 561, 1977). In certain experiments, the bone damage occurring because of immunization with type II collagen and the effects of drugs are determined from the radiographs of the hindpaws of two or three representative animals from each group. Injections of ICFAs alone were employed to some rats as a negative control.

[5] = tested on: angiogenesis factor; experiment: Inhibition of angiogenesis factor (3683 Morris hepatoma lysosomal-mitochondrial pellet) induced serpentine vessels in mice; type: in vivo, mice (SPF/ND4 female); conditions: Mus musculus, ip; for inhibition in vivo at 25 mg/kg: i.p., 24 hours
Method: Lysosomal-mitochondrial pellets containing angiogenesis factor are prepared from 3683 Morris hepatoma. The pellet is diluted with 7-8 ml. of 15% ficoll. With this dilution, 8-10 serpentine vessels will be produced per 0.2 cc. injection as described below for the control group.
Next, 15 SPF/ND4 female mice weighing 20-22 g. are shaved on the left side and then divided into three groups of five each. One group (drug group) is injected subcutaneously and laterally with 0.20 cc. of the lysosomal-mitochondrial preparation diluted with 15% ficoll. This group of mice is then dosed individually by the intraperitoneal route with 0.5 cc. of a solution or suspension in a standard vehicle containing the compound under test, usually at an initial dose level of 300 mg./kg. If this dose level is toxic, two-fold dilutions are made until all mice survive a single dose. The second group of mice (control group) is injected subcutaneously and laterally with 0.2 cc. of the lysosomal-mitochondrial suspension diluted with 15% ficoll and dosed intraperitoneally with 0.5 cc. of the vehicle alone. The third group (negative control) is injected with ficoll solution only (no treatment with drug or vehicle). The mice are sacrificed after 24 hours. Each mouse is placed on its side on a dissecting board with the shaved side up. Starting at the flank, the skin is cut straight to the back of the animal. A similar cut is made behind the front leg. Then the skin is cut along the back making a flap of about one inch by two inches. The skin is carefully separated from the connective tissue using forceps and a scalpel. The skin flap is then laid back exposing the lysosomal-mitochondrial implant which is attached to the skin. The skin flap is gently flattened out and with the use of a binocular dissecting scope, serpentine vessels are observed around the lysosomal-mitochondrial implant and their number counted. All observations of the number of serpentine vessels are made at the same power of the microscope (1X). The average number of serpentine vessels for each group is calculated. The percent inhibition is then calculated according to the following equation. [formula] where sv=average number of serpentine vessels.
If the negative control group described above has any serpentine vessels, the test is invalid due to contamination of the ficoll solution.
Table I covers compounds according to formula I above in which R^2 and R^3 are both H, table II covers compounds in which R^2 and R^3 form a 1-methylethylidene group, and Table III compounds in which R^2 plus R^3 equal a benzylidene group or other group.
One of the compounds of this invention, 3-O-n-octadecyl-5,6-O-(1-methylethylidene)-L-ascorbic acid was tested at a series of dose levels for its ability to inhibit tumor angiogenesis and the results of these tests are set forth in Table IV.

[6] = tested on: lung metastases and B16 melanoma; conditions: mice; Folkman and Taylor; cited from earlier work
[7] = tested on: Madison (M109) lung carcinoma; experiment: Madison lung metastasis assay; type: in vivo, male BALB/C mice
Method: In addition, the compounds of this invention have found utility as angiogenesis inhibitors in metastatis formation. Such activity has been found in an artificial metastasis model using Madison lung (M 109) carcinoma which metastasizes preferentially to lungs and is not overly sensitive to chemotherapeutic agents. The test is carried out as follows.
The Madison (M109) lung carcinoma is carried as a transplantable line in syngeneic BALB/C mice. This tumor line was obtained from the tumor bank at Mason Research Institute, Worcester, Mass. For tumor metastasis studies, a subcutaneously-grown tumor is aseptically excised, minced into small pieces with a scissors, and gently trypsinized at room temperature to obtain a single cell suspension. The cells are suspended in RPMI-1640 medium (M. A. Bioproducts, Walkersville, MD). Viable M109 cells are determined by trypan blue exclusion, and the cell concentration is determined with a hemocytometer. The cells are adjusted to 1×10^5 viable cells/ml. of medium. M109 cells are injected i.v. into normal, male BALB/C mice. Inoculum volume per mouse is 0.2 ml. (2×10^4 cells). Drugs are administered i.p. to randomized groups of 10 mice 2 days prior to tumor cell inoculation. Controls receive mock injections of 0.5 ml. buffer. Daily mortality is monitored, and median survival times are determined for each group. Cytoxan was employed as a positive control. In the Table, column 1 gives drug treatment and columns 2 and 3 measures number of lesions±standard error per lung on days 30 and 42.
The growth rate and number of lung metastases in the above experiment were less than usual. A new transplant line was employed in a second determination with lung lesions developing earlier. Table 6 records the results of this experiment; here ascorbic acid was employed as the control drug.

[8] = pKa by titration; type: physicochemical; conditions: for pKa: read-out: pKa
[9] = tested on: Morris hepatoma (5123D); experiment: Growth/induction of transplanted Morris hepatoma (5123D) in ICFA-treated rats; type: in vivo; conditions: 10-100 mg. once or twice a day orally
Method: Another laboratory test involving angiogenesis or neovascularization is based on the time period required for a differentiated tumor to become undifferentiated (vascularized). An inflammatory response enhances tumor growth and reduces the lag phase. In this test, rats are injected with a test drug (30 minutes prior to dosing) with ICFA (incomplete Freund's adjuvant) plus India ink intradermally in a shaved area on a rat's back, thus providing a marked injection site. After 3 days of twice daily administration of the test drug followed 30 minutes later by administration of ICFA, the tumor is transplanted on the periphery of the marked injection site. The animals are weighed and the tumor size determined (length+width/2) at weekly intervals for 4 weeks. Morris hepatoma (5123D) was used as the […] tumor.
0.5 cc. of ICFA were also given once or twice daily subcutaneously to each test rat.

[10] = Table 6, 16 day, new transplant line, 100 mg./kg., Emulphor control 69.8 ± 10.4
[11] = oral 50 mg./kg., one experiment

Compound: COC1=C(O)C(=O)O[C@@H]1[C@@H](O)CO [3-methylascorbic acid]
vitamin C activity relative to ascorbic acid [1]: about 1/50
Vitamin C activity [2]: active
stimulation of proline hydroxylation [3]: had an effect in vitro

Compound: CCCCCCCCCCCCCCCCCCOC1=C(OCCCCCCCCCCCCCCCCCC)[C@@H]([C@@H](O)CO)OC1=O [2,3-di-(-O-n-octadecyl)-L-ascorbic acid]
decrease of paw volumes ([4]; 12.5 and 25 mg./kg.): 33-67%
inhibition in vivo at 25 mg/kg ([5]; 24 h, Table 1, read-out: average % inhibition (serpentine vessels)): 52%

Compound: protamine
inhibition of lung metastases and B16 melanoma [6]: inhibited lung metastases and B16 melanoma in mice

Compound: O=C1O[C@H]([C@@H](O)CO)C(OCc2cccc(C(F)(F)F)c2)=C1O [3-O-(3-trifluoromethylbenzyl)-L-ascorbic acid]
paw volumes vs ICFA controls ([4]; 25 mg./kg.): substantially the same as ICFA controls

Compound: O=C1O[C@H]([C@@H](O)CO)C(O)=C1O [ascorbic acid]
Mean No. of Lesions ± S.E./Lung [7, 10]: 33.8 ± 9.6 Lesions/Lung

pKa [8]: 10.4
Compound: CC1(C)OC[C@@H]([C@H]2OC(=O)C(O)=C2OCCCCC#N)O1 [3-O-(4-cyanobutyl)-5,6-O-(1-methylethylidene)-L-ascorbic acid]
decrease in paw swelling caused by collagen Type II injection [4]: substantial decreases in paw swelling

pKa [8]: 11.4
Compound: CCCCCCCCCCCCCCCCCCOC1=C(O)C(=O)O[C@@H]1[C@@H]1COC(C)(C)O1 [3-O-n-octadecyl-5,6-O-(1-methylethylidene)-L-ascorbic acid]
paw volumes vs negative control levels ([4]; 50 mg./kg., other runs): indistinguishable from negative control levels
inhibition of the swelling of the paw [4, 11]: about 50%
inhibition in vivo at 30 mg/kg ([5]; Table 4, intraperitoneal dose 30 mg./kg., individual results): 58%
inhibition in vivo at 120 mg/kg ([5]; Table 4, intraperitoneal dose 120 mg./kg., individual results): 66%
inhibition in vivo at 240 mg/kg ([5]; Table 4, intraperitoneal dose 240 mg./kg., individual results): 71%

Compound: CCCCCCCCCCCCCCCCCCOC1=C(O)C(=O)O[C@@H]1[C@@H](O)CO [3-O-n-octadecyl-L-ascorbic acid]
Mean No. of Lesions ± S.E./Lung ([7]; Table 5, Day 30, 35 mg./kg. i.p., Emulphor control 15.8 ± 4.6): 1.8 ± 1.2 Lesions/Lung
Mean No. of Lesions ± S.E./Lung ([7]; Table 5, Day 42, 35 mg./kg. i.p., Emulphor control 20.6 ± 1.8): 18.6 ± 1.3 Lesions/Lung
Mean No. of Lesions ± S.E./Lung ([7]; Table 6, 16 day, new transplant line, 30 mg./kg., Emulphor control 69.8 ± 10.4): 10.7 ± 3.4 Lesions/Lung
Mean No. of Lesions ± S.E./Lung [7, 10]: 13.0 ± 5.1 Lesions/Lung
growth of the undifferentiated tumor ([9]; alternative outcome to delayed induction): inhibited the growth of the undifferentiated tumor
delay of tumor induction ([9]; alternative outcome to growth inhibition): 4 to 7 days
decrease of paw volumes ([4]; 12.5 mg./kg.): about 25%
paw volumes vs controls ([4]; 17.5 mg./kg.): indistinguishable from controls
decrease of paw volume vs positive controls (collagen, no drug) ([4]; 50 mg./kg., other runs): 90-100%
paw volumes vs ICFA-treated rats (negative controls) [4, 11]: not substantially different from those of the ICFA-treated rats

Compound: CCCCCCCCCCCCCCCCCOC1=C(O)C(=O)O[C@@H]1[C@@H](O)CO [3-O-n-heptadecyl-L-ascorbic acid]
decrease in paw swelling caused by collagen Type II injection [4]: substantial decreases in paw swelling

Compound: COC1=C(OC)C(C(O)CO)OC1=O (centres unmarked) [2,3-dimethylascorbic acid]
Vitamin C activity [2]: devoid of Vitamin C activity

Compound: O=P1(N(CCCl)CCCl)NCCCO1 (centres unmarked) [Cytoxan, reference compound]
Mean No. of Lesions ± S.E./Lung ([7]; Table 5, Day 30, 30 mg./kg. i.p. every 4th day starting on day 12, Emulphor control 15.8 ± 4.6): 8.4 ± 1.5 Lesions/Lung

Compound: CCCCCCCCCCC1(C)OC[C@@H]([C@H]2OC(=O)C(O)=C2O)O1 (stereo partly drawn) [5,6-O-(1-n-decylethylidene)-L-ascorbic acid]
decrease in paw swelling caused by collagen Type II injection [4]: substantial decreases in paw swelling

pKa [8]: 6.1
Compound: CC1(C)OC[C@@H]([C@H]2OC(=O)C(O)=C2O)O1 [5,6-O-(1-methylethylidene)-L-ascorbic acid]
inhibition in vivo at 10 mg/kg ([5]; 24 h, Table 2, dose 10 mg./kg.): 48%

titratable group [8]: No titratable groups
Compound: CC1(C)OC[C@@H]([C@H]2OC(=O)C(OCc3ccc(C#N)cc3)=C2OCc2ccc(C#N)cc2)O1 [2,3-bis(O-4-cyanobenzyl)-5,6-O-(1-methylethylidene)-L-ascorbic acid]
decrease in paw swelling caused by collagen Type II injection [4]: substantial decreases in paw swelling
inhibition in vivo at 25 mg/kg ([5]; 24 h, Table 2, read-out: % inhibition (serpentine vessels)): 36 to 91%
